Converted amounts (≈) assume the structure as drawn. Bridge positions count the residues as written; N and C are the ends. Square brackets hold non-standard residues; d marks the D form. Peptide text beside a SMILES is read from it. I, II: the chains in the order shown. * marks the point of attachment. Quinaldoyl(3-OH) = O=C(c1nc2ccccc2cc1O)*; NMeV = CN[CH](C(=O)O)C(C)C; Pip = O=C(O)[CH]1CCCCN1; Sar = CNCC(=O)O
How the values were obtained:
S. aureus 209P-A9497 = assay: Antibacterial activity, serial two-fold agar dilution method; type: cell-based; conditions: Staphylococcus aureus, read-out: Minimum Inhibitory Concentration (MIC)
Experimental: (§1) The antibacterial activities of sandramycin were determined by a serial two-fold agar dilution method. The results are shown in Table 5 in comparison with the activities of luzopeptin A and echinomycin.

P-388 leukemia = assay: Transplantable mouse tumor P-388 leukemia; type: in vivo, mouse (CDF1 female mice); conditions: for MST (median survival time): control MST 9.0 days
Experimental: The methodology used generally followed the protocols of the National Cancer Institute [Cancer Chemotherapy Rep. Part 3, 3, 1-103 (1972)]. The essential experimental details are given at the bottom of Table 6. Two different dose regimens were tested: single dose on day 1 and daily for 5 days. With both schedules, the optimum dose appears to be about 0.2 mg/kg/injection.
Tumor inoculum: 10^6 ascites cells implanted i.p.
Evaluation: MST = median survival time
Effect: % T/C ≥ (MST treated/MST control) × 100
Criteria: % T/C = 125 considered significant antitumor activity
AWC: average weight change (treatedcontrol) in grams (on day 4)

[1] = system: gram-positive organisms such as Bacillus subtilis and Staphylococcus aureus as well as Streptococcus faecalis; assay: Antibacterial activity, serial two-fold agar dilution method (statement in words); type: cell-based
Experimental: as §1

Work on CS[C@H]1SC[C@H]2C(=O)N(C)[C@@H](C(C)C)C(=O)OC[C@@H](NC(=O)c3cnc4ccccc4n3)C(=O)N[C@@H](C)C(=O)N(C)[C@@H]1C(=O)N(C)[C@@H](C(C)C)C(=O)OC[C@@H](NC(=O)c1cnc3ccccc3n1)C(=O)N[C@@H](C)C(=O)N2C [Echinomycin, reference compound] yielded an MIC (S. aureus 209P-A9497) of 0.012 µg/mL (≈ 0.0109 µM).
In the case of CC(C)C1C(=O)OCC(NC(=O)c2nc3ccccc3cc2O)C(=O)N2CCCCC2C(=O)NCC(=O)N(C)CC(=O)N(C)C(C(C)C)C(=O)OCC(NC(=O)c2nc3ccccc3cc2O)C(=O)N2CCCCC2C(=O)NCC(=O)N(C)CC(=O)N1C (stereo not drawn) [Sandramycin] (I: {Quinaldoyl(3-OH)}-S[Pip]G[Sar][NMeV] / II: {Quinaldoyl(3-OH)}-S[Pip]G[Sar][NMeV]; ester I:1-II:C, I:C-II:1; configuration not given here), the MIC (S. aureus 209P-A9497) is reported as 0.012 µg/mL (≈ 0.00983 µM), the optimum dose (P-388 leukemia; both schedules: single dose on day 1 and daily for 5 days, IP) is reported as “about 0.2 mg/kg/injection” and the “AWC (average weight change) Day 4” value (P-388 leukemia; d. 1, IP, 0.025 mg/kg/inj.) is reported as -0.2 gm. The “MST (median survival time)” value (P-388 leukemia; d. 1, IP, 0.025 mg/kg/inj.) was 9.5 days, the “AWC (average weight change) Day 4” value (P-388 leukemia; d. 1, IP, 0.05 mg/kg/inj.) was -0.6 gm and the “MST (median survival time)” value (P-388 leukemia; d. 1, IP, 0.05 mg/kg/inj.) was 10.0 days. For the same compound, the “AWC (average weight change) Day 4” value (P-388 leukemia; d. 1, IP, 0.1 mg/kg/inj.) was -0.9 gm, the “MST (median survival time)” value (P-388 leukemia; d. 1, IP, 0.1 mg/kg/inj.) was 11.0 days and the “AWC (average weight change) Day 4” value (P-388 leukemia; d. 1, IP, 0.2 mg/kg/inj.) was -1.4 gm. For the same compound, the “AWC (average weight change) Day 4” value (P-388 leukemia; d. 1, IP, 0.4 mg/kg/inj.) was -0.7 gm, the “MST (median survival time)” value (P-388 leukemia; d. 1, IP, 0.4 mg/kg/inj.) was 11.0 days and the “AWC (average weight change) Day 4” value (P-388 leukemia; d. 1, IP, 0.8 mg/kg/inj.) was -1.6 gm. The “MST (median survival time)” value (P-388 leukemia; d. 1, IP, 0.8 mg/kg/inj.) was 10.0 days, the “AWC (average weight change) Day 4” value (P-388 leukemia; d. 1, IP, 1.6 mg/kg/inj.) was -1.3 gm and the “AWC (average weight change) Day 4” value (P-388 leukemia; d. 1, IP, 3.2 mg/kg/inj.) was -2.8 gm. The “MST (median survival time)” value (P-388 leukemia; d. 1, IP, 3.2 mg/kg/inj.) was “Toxic”, the “AWC (average weight change) Day 4” value (P-388 leukemia; d. 1→5, IP, 0.0125 mg/kg/inj.) was -0.9 gm and the “Survivors Day 5” value (P-388 leukemia; d. 1→5, IP, 0.0125 mg/kg/inj.) was 6/6. The “AWC (average weight change) Day 4” value (P-388 leukemia; d. 1→5, IP, 0.025 mg/kg/inj.) was -1.4 gm, the “MST (median survival time)” value (P-388 leukemia; d. 1→5, IP, 0.025 mg/kg/inj.) was 10.0 days and the “AWC (average weight change) Day 4” value (P-388 leukemia; d. 1→5, IP, 0.05 mg/kg/inj.) was -1.8 gm. The “MST (median survival time)” value (P-388 leukemia; d. 1→5, IP, 0.05 mg/kg/inj.) was 8.5 days, the “AWC (average weight change) Day 4” value (P-388 leukemia; d. 1→5, IP, 0.1 mg/kg/inj.) was -0.8 gm and the “AWC (average weight change) Day 4” value (P-388 leukemia; d. 1→5, IP, 0.2 mg/kg/inj.) was -1.7 gm. For the same compound, the “MST (median survival time)” value (P-388 leukemia; d. 1→5, IP, 0.2 mg/kg/inj.) was 12.0 days, the “AWC (average weight change) Day 4” value (P-388 leukemia; d. 1→5, IP, 0.4 mg/kg/inj.) was -1.3 gm and the “MST (median survival time)” value (P-388 leukemia; d. 1→5, IP, 0.4 mg/kg/inj.) was 11.0 days. For the same compound, the “AWC (average weight change) Day 4” value (P-388 leukemia; d. 1→5, IP, 0.8 mg/kg/inj.) was -1.4 gm, the “MST (median survival time)” value (P-388 leukemia; d. 1→5, IP, 0.8 mg/kg/inj.) was 6.0 days and the “AWC (average weight change) Day 4” value (P-388 leukemia; d. 1→5, IP, 1.6 mg/kg/inj.) was -1.7 gm. For the same compound, the “MST (median survival time)” value (P-388 leukemia; d. 1→5, IP, 1.6 mg/kg/inj.) was “Toxic” and the antibacterial activity [1] was “strongly inhibitory”.
